Experimental data taken from patent publication US20080268535A1, “Method for Inducing the Differentiation of Human Myelogenous Leukemia Cells Into Megakarocytes or Thrombocytes” (EWHA University - Industry Collaboration Foundation, priority 2005, published 2008).
Entries after “also recorded” stand apart in the source; their conditions may differ.

Columns and labels:
[1] = tested on: K562 cells; assay: Differentiation of K562 cells layered on OP9 cells, CD41/CD61 by FACS; assay type: cell-based, human
Protocol: OP9 cells were aliquoted at a density of 1×10^5 cells per well in 6-well plates and incubated for 24 hrs. After OP9 cells were uniformly attached onto the bottom of the plates, K562 cells were layered at a density of 1×10^5 cells per well over the OP cells in the 6-well plates. Treatment with 40 μg/ml of (R)-NALPCE was conducted before incubation in a day-dependent manner for 4 days. Following centrifugation (1,000 rpm, 5 min), the cell pellets thus obtained were rinsed three times with 0.01% bovine serum albumin (BSA) in PBS. Incubation with 10 μl of anti-CD41-fluorescein-5-isothiocyanate (FITC) (Dako Chemicals, Carpenteria, Calif.) and 20 μl of anti-CD61-phycoerythrin (PE) (BD Pharmingen) in 200 μl of 0.01% bovine serum albumin (BSA)-PBS was conducted at 4° C. for 50 min so as to achieve homogeneous fluorescent staining. After centrifugation (1,000 rpm, 10 min), the fluorescent-stained cell pellets thus obtained were washed three times with 0.01% bovine serum albumin (BSA) in PBS. Fluorescence was analyzed on a fluorescence-activated cell sorter (FACS) (Aria) using a Cellquest program.

[2] = tested on: HEL cells; assay: Growth curve of HEL cells (trypan blue viable cell count); assay type: cell-based, human; details: 5 μg/ml, counted every day for 5 days
Protocol: To examine the effect of the compound (R)-NALPCE on cell growth, the HEL cells was monitored for growth curve in the presence thereof. The cells were aliquoted at a density of 3×10^5 cells per well in 6-well plates and treated with 5 μg/ml of (R)-NALPCE. After staining with trypan blue, viable cells were counted every day for 5 days.

## CCCCCCCCCCCCCCCCCC(=O)NC(COP(=O)([O-])OCC[N+](C)(C)C)C(=O)OC [(R)-NALPCE, N-steroyl-O-phosphocholine-D-serine methyl ester]
[1]; K562 cells on OP9 cells, 40 μg/ml, 4 days
  increase in the count of CD41-positive cells, with OP9 cells versus alone: 15%
[1]; in combination with OP9 cells
  differentiation inductivity compared with PMA: comparable with the differentiation inductivity of PMA; also recorded: as good as that of PMA
[2]
  cell growth curve (viable cells): relatively low cell growth curve
